Measurements published in US5968978A, “Biphenylsulfonylcyanamides, process for their preparation, and their use as medicament” (Hoechst Marion Roussel Deutschland, priority 1997, dated 1999).

These compounds were tested on Na+-dependent Cl-/HCO3- exchanger (NCBE) (assay: Inhibition of the Na+-dependent Cl-/HCO3- exchanger (NCBE) in human endothelial cells (FLIPR, BCECF pHi recovery)). Conditions: inhibitor concentration of 10 μM; human endothelial cells (ECV-304); 50 μM HOE 642 present.
Assay type: cell-based
Experimental: Inhibition of the Na^+ -dependent Cl^- /HCO3^- exchanger (NCBE) in human endothelial cells
Human endothelial cells (ECV-304) were detached from culture flasks with the aid of trypsin/EDTA buffer (0.05/0.02% in phosphate buffer) and, after centrifugation (100 g, 5 min), taken up in a buffered salt solution (mmol/l: 115 NaCl, 20 NH4 Cl, 5 KCl, 1 CaCl2, 1 MgSO4, 20 N-(2-hydroxyethyl)-piperazine-N'-2-ethanesulfonic acid (HEPES), 5 glucose and 1 g/l of bovine serumalbumin; pH 7.4). This cell suspension was incubated at 37° C. for 20 min with 5 μM BCECF acetoxymethyl ester. The cells were then washed and resuspended in a sodium- and bicarbonate-free buffer solution (mmol/l: 5 HEPES, 133.8 choline chloride, 4.7 KCl, 1.25 MgCl2, 0.97 K2 HPO4, 0.23 KH2 PO4, 5 glucose; pH 7.4).
The subsequent fluorescence measurement in the FLIPR (Fluorescent Imaging Plate Reader), 100 μl of this cell suspension in each case containing 20000 cells were added by pipette per well of a 96-well microtiter plate and this microtiter plate was centrifuged (100 g, 5 min).
In the FLIPR, 100 μl of buffer solution in each case were then removed from a further prepared microtiter plate and added by pipette to each of the 96 wells of the measuring plate. In this case, for a 100% control, i.e. a recovery of the intracellular pH (pHi) by means of the NCBE, a bicarbonate- and sodium-containing buffer solution (mmol/l: 5 HEPES, 93.8 NaCl, 40 NaHCO3, 4.7 KCl, 1.25 CaCl2, 1.25 MgCl2, 0.97 Na2 HPO4, 0.23 NaH2 PO4, 5 glucose; pH 7.4) which contained 50 μM HOE 642 was used. For a 0% control, i.e. no pHi recovery at all, a bicarbonate-free, sodium-containing buffer solution (mmol/l: 5 HEPES, 133.8 NaCl, 4.7 KCl, 1.25 CaCl2, 1.25 MgCl2, 0.97 Na2 HPO4, 0.23 NaH2 PO4, 5 glucose; pH 7.4) to which 50 μM HOE 642 were also added was employed. The compounds of the formula (I) according to the invention were added in various concentrations of the sodium- and bicarbonate-containing solution.
After addition of the buffer solutions to the dye-loaded acidified cells situated in the measuring plate,the increase in the fluorescence intensity which corresponded to an increase in the pHi was determined in each well of the microtiter plate. The kinetics were in this case recorded at 35° C. over a period of 2 minutes.
The increase in the fluorescence intensities for different concentrations of the compounds according to the invention was related to the two controls and from this the inhibitory action of the substances was determined.

SMILES | Residual activity of the NCBE [%]
N#CNS(=O)(=O)c1ccccc1-c1ccc(/C=C/C2CCCCC2)cc1 [Example 9, trans-4'-(2-Cyclohexylvinyl)biphenyl-2-sulfonylcyanamide] | 12.8
N#CNS(=O)(=O)c1ccccc1-c1ccc(C=C2CCCCCC2)cc1 [Example 4, 4'-Cycloheptylidenemethylbiphenyl-2-sulfonylcyanamide] | 30.5
N#CNS(=O)(=O)c1ccccc1-c1ccc(C=C2CCCC2)cc1 [Example 3, 4'-Cyclopentylidenemethylbiphenyl-2-sulfonylcyanamide] | 29.4
N#CNS(=O)(=O)c1ccccc1-c1ccc(CC2CCCCC2)cc1 [Example 2, 4'-Cyclohexylmethylbiphenyl-2-sulfonylcyanamide] | 51.6
N#CNS(=O)(=O)c1ccccc1-c1ccc(/C=C\c2ccccc2)cc1 [Example 5, cis-4'-Styrylbiphenyl-2-sulfonylcyanamide] | 21.2
N#CNS(=O)(=O)c1ccccc1-c1ccc(CCc2ccccc2)cc1 [Example 7, 4'-Phenethylbiphenyl-2-sulfonylcyanamide] | 64.2
N#CNS(=O)(=O)c1ccccc1-c1ccc(/C=C/c2ccccc2)cc1 [Example 6, trans-4'-Styrylbiphenyl-2-sulfonylcyanamide] | 19.3
N#CNS(=O)(=O)c1ccccc1-c1ccc(C=C2CCCCC2)cc1 [Example 1, 4'-Cyclohexylidenemethylbiphenyl-2-sulfonylcyanamide] | 68.4
N#CNS(=O)(=O)c1ccccc1-c1ccc(/C=C\C2CCCCC2)cc1 [Example 8, cis-4'-(2-Cyclohexylvinyl)biphenyl-2-sulfonylcyanamide] | 13.4
N#CNS(=O)(=O)c1ccccc1-c1ccc(CCC2CCCCC2)cc1 [Example 10, 4'-(2-Cyclohexylethyl)biphenyl-2-sulfonylcyanamide] | 24.3
